Results on 22 compounds are retold here after ChEMBL document CHEMBL3792360, “Antibacterial activity of Mannich bases derived from 2-naphthols, aromatic aldehydes and secondary aliphatic amines” (2016).

Each structure is given as a SMILES string. In brackets after ≈: the same amount, converted by molar mass.

Holding throughout (assay type): functional
For assay [1], the system named is Escherichia coli. Nature of the assay: Antibacterial activity against Escherichia coli ATCC 35218 after 16 to 20 hrs by broth microdilution method. For orientation: Broth dilution looks for growth in wells or tubes with falling amounts of substance.
Assay [2] relates to Escherichia coli. Nature of the assay: Antibacterial activity against Escherichia coli ATCC 25922 after 16 to 20 hrs by broth microdilution method.
For assay [3], the system named is Enterococcus faecalis. The assay can be described thus: Antibacterial activity against Enterococcus faecalis ATCC 25912 after 16 to 20 hrs by broth microdilution method.
Assay [4] concerns Pseudomonas aeruginosa. The assay can be described thus: Antibacterial activity against Pseudomonas aeruginosa CIP 82118 after 16 to 20 hrs by broth microdilution method.
For assay [5], the system named is Staphylococcus aureus. The assay can be described thus: Antibacterial activity against Staphylococcus aureus […] after 16 to 20 hrs by broth microdilution method.
Assay [6] has as its system Enterobacter cloacae. Nature of the assay: Antibacterial activity against Enterobacter cloacae CIP 103475 after 16 to 20 hrs by broth microdilution method.
The test system of assay [7] is Citrobacter freundii. Nature of the assay: Antibacterial activity against Citrobacter freundii CIP 5732 after 16 to 20 hrs by broth microdilution method.
In assay [8] the test system is Klebsiella pneumoniae. Nature of the assay: Antibacterial activity against Klebsiella pneumoniae CIP 53153 after 16 to 20 hrs by broth microdilution method.
In assay [9] the test system is Proteus vulgaris. Nature of the assay: Antibacterial activity against Proteus vulgaris CIP 104989 after 16 to 20 hrs by broth microdilution method.
For assay [10], the system named is Staphylococcus aureus. The assay can be described thus: Antibacterial activity against methicillin-resistant Staphylococcus aureus ATCC 43300 after 16 to 20 hrs by broth microdilution method.

The term MIC denotes the lowest concentration found to suppress growth. Read a high MIC as a need for much substance.

`COc1ccc2ccc(O)c(C(c3cccc4ccccc34)N3CCCCC3)c2c1` (stereo not given): the MIC in assay [1], in assay [2], in assay [3], in assay [4], in [5] and in assay [6] was more than 512 µg/mL each time. Also, the MIC in [7], in assay [8], in assay [9] and in [10] was more than 512 µg/mL throughout.
For `Oc1ccc2ccccc2c1C(c1ccc(Br)s1)N1CCCCC1` (stereo not given), the MIC is more than 512 µg/mL in assay [1]; more than 512 µg/mL in assay [2]; 16 µg/mL (≈ 39.8 µM) in assay [3]; more than 512 µg/mL in assay [4]; 8 µg/mL (≈ 19.9 µM) in assay [5]; more than 512 µg/mL in assay [6]. Further, the MIC in assay [7] was more than 512 µg/mL; in [8] it was more than 512 µg/mL; in assay [9], more than 512 µg/mL; in [10], 16 µg/mL (≈ 39.8 µM).
For `COc1ccc2ccc(O)c(C(c3cccs3)N3CCCCC3)c2c1` (stereo not given), the MIC in assay [1] is more than 512 µg/mL; in assay [2] it was more than 512 µg/mL; in assay [3], 32 µg/mL (≈ 90.5 µM); in [4], more than 512 µg/mL; in [5] it was 16 µg/mL (≈ 45.3 µM); in assay [6], more than 512 µg/mL. Also, the MIC was more than 512 µg/mL in assay [7], more than 512 µg/mL in [8], more than 512 µg/mL in [9] and 16 µg/mL (≈ 45.3 µM) in assay [10].
For `COc1ccc2ccc(O)c(C(c3cccc4ccccc34)N3CCC(C)CC3)c2c1` (stereo not given), the MIC in assay [1], in assay [2], in [3], in assay [4], in assay [5] and in [6] was more than 512 µg/mL each time. Besides, the MIC in [7], in [8], in [9] and in [10] was more than 512 µg/mL each time.
For `Oc1ccc2cc(Br)ccc2c1C(c1cccs1)N1CCCCC1` (stereo not given), the MIC in assay [1] is more than 512 µg/mL; in assay [2], more than 512 µg/mL; in assay [3] it was 16 µg/mL (≈ 39.8 µM); in [4], more than 512 µg/mL; in [5], 8 µg/mL (≈ 19.9 µM); in assay [6] it was more than 512 µg/mL. Besides, the MIC in assay [7] was more than 512 µg/mL; in assay [8], more than 512 µg/mL; in assay [9], more than 512 µg/mL; in [10] it was 8 µg/mL (≈ 19.9 µM).
Consider `Oc1ccc2ccccc2c1C(c1cccs1)N1CCCCC1` (stereo not given), for which the MIC in assay [1] was more than 512 µg/mL; in assay [2] it was more than 512 µg/mL; in assay [3], 32 µg/mL (≈ 98.9 µM); in assay [4], more than 512 µg/mL; in [5], 16 µg/mL (≈ 49.5 µM); in assay [6] it was more than 512 µg/mL. For the same compound, the minimum inhibitory concentration (MIC) is more than 512 µg/mL in assay [7], more than 512 µg/mL in assay [8], more than 512 µg/mL in assay [9] and 8 µg/mL (≈ 24.7 µM) in assay [10].
For `Oc1ccc2ccccc2c1C(c1cccs1)N1CCCC1` (stereo not given), the MIC in [1] is more than 512 µg/mL; in assay [2] it was more than 512 µg/mL; in [3] it was 32 µg/mL (≈ 103 µM); in assay [4], more than 512 µg/mL; in assay [5] it was 32 µg/mL (≈ 103 µM); in assay [6] it was more than 512 µg/mL. Also, the MIC in assay [7] is more than 512 µg/mL; in [8] it was more than 512 µg/mL; in [9], more than 512 µg/mL; in assay [10], 32 µg/mL (≈ 103 µM).
Take `COc1ccc2ccc(O)c(C(c3ccccn3)N3CCC(C)CC3)c2c1` (stereo not given): the MIC in [1], in assay [2], in assay [3], in assay [4], in [5] and in [6] was more than 512 µg/mL each time. Besides, the MIC in [7], in assay [8], in [9] and in [10] was more than 512 µg/mL throughout.
As for `CC1CCN(C(c2cccc(Cl)c2)c2c(O)ccc3cc(Br)ccc23)CC1` (stereo not given), the MIC in assay [1], in assay [2], in [3], in [4], in [5] and in [6] was more than 512 µg/mL in each case. The MIC in [7], in assay [8], in [9] and in assay [10] was more than 512 µg/mL throughout.
As to `CC1CCN(C(c2cccs2)c2c(O)ccc3ccccc23)CC1` (stereo not given), the MIC is more than 512 µg/mL in assay [1]; more than 512 µg/mL in assay [2]; 16 µg/mL (≈ 47.4 µM) in assay [3]; more than 512 µg/mL in [4]; 8 µg/mL (≈ 23.7 µM) in assay [5]; more than 512 µg/mL in assay [6]. The MIC in assay [7] is more than 512 µg/mL; in assay [8], more than 512 µg/mL; in assay [9] it was more than 512 µg/mL; in assay [10], 8 µg/mL (≈ 23.7 µM).
With `CN1CCN(C(c2cccs2)c2c(O)ccc3ccccc23)CC1` (stereo not given), the MIC in assay [1] was more than 512 µg/mL; in [2], more than 512 µg/mL; in [3] it was 32 µg/mL (≈ 94.5 µM); in [4] it was more than 512 µg/mL; in assay [5] it was 32 µg/mL (≈ 94.5 µM); in assay [6], more than 512 µg/mL. Besides, the MIC in [7] was more than 512 µg/mL; in [8], more than 512 µg/mL; in assay [9], more than 512 µg/mL; in assay [10], 32 µg/mL (≈ 94.5 µM).
Consider `COc1ccc2ccc(O)c(C(c3ccccc3)N3CCC(C)CC3)c2c1` (stereo not given), for which the MIC in [1] is more than 512 µg/mL; in assay [2], more than 512 µg/mL; in [3], more than 512 µg/mL; in [4], more than 512 µg/mL; in assay [5], 8 µg/mL (≈ 22.1 µM); in [6], more than 512 µg/mL. In addition, the MIC in assay [7], in assay [8], in assay [9] and in [10] was more than 512 µg/mL throughout.
In the case of `Oc1ccc2cc(Br)ccc2c1C(c1ccccc1)N1CCCCC1` (stereo not given), the minimum inhibitory concentration (MIC) in assay [1], in [2], in assay [3], in assay [4], in [5] and in assay [6] was more than 512 µg/mL each time. For the same compound, the MIC in assay [7], in assay [8], in assay [9] and in assay [10] was more than 512 µg/mL throughout.
As to `Oc1ccc2cc(Br)ccc2c1C(c1cccc(Cl)c1)N1CCCCC1` (stereo not given), the MIC in [1] was more than 512 µg/mL; in assay [2], more than 512 µg/mL; in assay [3], more than 512 µg/mL; in [4], more than 512 µg/mL; in assay [5] it was 8 µg/mL (≈ 18.6 µM); in assay [6], more than 512 µg/mL. Moreover, the MIC in assay [7], in assay [8], in assay [9] and in assay [10] was more than 512 µg/mL in each case.
`COc1ccc2ccc(O)c(C(c3ccccc3)N3CCCCC3)c2c1` (stereo not given): the MIC in assay [1], in assay [2], in [3], in [4], in assay [5] and in [6] was more than 512 µg/mL throughout. Further, the MIC in assay [7], in [8], in [9] and in assay [10] was more than 512 µg/mL each time.
Consider `Oc1ccc2ccccc2c1C(c1cccs1)N1CCOCC1` (stereo not given), for which the MIC is more than 512 µg/mL in assay [1]; more than 512 µg/mL in assay [2]; 32 µg/mL (≈ 98.3 µM) in [3]; more than 512 µg/mL in assay [4]; 32 µg/mL (≈ 98.3 µM) in assay [5]; more than 512 µg/mL in assay [6]. Moreover, the MIC in assay [7] is more than 512 µg/mL; in assay [8], more than 512 µg/mL; in [9] it was more than 512 µg/mL; in assay [10] it was 32 µg/mL (≈ 98.3 µM).
For `CC1CCN(C(c2cccc3ccccc23)c2c(O)ccc3cc(Br)ccc23)CC1` (stereo not given), the MIC in assay [1], in assay [2], in assay [3], in assay [4], in assay [5] and in assay [6] was more than 512 µg/mL in each case. Besides, the MIC in [7], in [8], in [9] and in assay [10] was more than 512 µg/mL throughout.
As for `CC1CCN(C(c2ccccc2)c2c(O)ccc3cc(Br)ccc23)CC1` (stereo not given), the MIC in assay [1], in [2], in [3], in assay [4], in assay [5] and in [6] was more than 512 µg/mL each time. The MIC in assay [7], in assay [8], in assay [9] and in assay [10] was more than 512 µg/mL in each case.
For the compound `CN(C)C(c1cccs1)c1c(O)ccc2ccccc12` (stereo not given), the minimum inhibitory concentration (MIC) is more than 512 µg/mL in assay [1]; more than 512 µg/mL in [2]; 16 µg/mL (≈ 56.5 µM) in assay [3]; more than 512 µg/mL in [4]; 16 µg/mL (≈ 56.5 µM) in assay [5]; more than 512 µg/mL in [6]. Besides, the MIC in assay [7] is more than 512 µg/mL; in assay [8] it was more than 512 µg/mL; in [9], 128 µg/mL (≈ 452 µM); in [10], 16 µg/mL (≈ 56.5 µM).
For the compound `Oc1ccc2ccccc2c1C(c1cccs1)N1CCN(c2ccccc2)CC1` (stereo not given), the MIC is more than 512 µg/mL in [1]; more than 512 µg/mL in [2]; more than 512 µg/mL in assay [3]; more than 512 µg/mL in assay [4]; 64 µg/mL (≈ 160 µM) in [5]; more than 512 µg/mL in assay [6]. The MIC in assay [7] was more than 512 µg/mL; in [8], more than 512 µg/mL; in assay [9], more than 512 µg/mL; in [10], 16 µg/mL (≈ 39.9 µM).
On to `Oc1ccc2cc(Br)ccc2c1C(c1cccc2ccccc12)N1CCCCC1` (stereo not given), for which the MIC in [1], in assay [2], in assay [3], in assay [4], in assay [5] and in assay [6] was more than 512 µg/mL each time. Further, the MIC in assay [7], in assay [8], in assay [9] and in assay [10] was more than 512 µg/mL in each case.
As for `COc1ccc2ccc(O)c(C(c3cccs3)N3CCC(C)CC3)c2c1` (stereo not given), the MIC in assay [1] was more than 512 µg/mL; in assay [2] it was more than 512 µg/mL; in assay [3], 64 µg/mL (≈ 174 µM); in assay [4], more than 512 µg/mL; in [5] it was 16 µg/mL (≈ 43.5 µM); in assay [6], more than 512 µg/mL. The MIC in assay [7] is more than 512 µg/mL; in assay [8] it was more than 512 µg/mL; in assay [9] it was more than 512 µg/mL; in assay [10], 16 µg/mL (≈ 43.5 µM).
